# Values joined by “and” are separate entries in the source; they are usually repeats but may differ in a detail not shown here. Equal entries are not always repeated. Where two headings read alike, the source gives them in different places.
# Assays:
# [1] = test system: rat liver cells; assay: Comet assay, conventional (no FPG), liver; settings: for Hedgehogs/100 cells (mean ± SD) / TI (%) (mean ± SD) / TI (%), mean of medians from 2 slides: liver, no FPG, 5 days; for TI (%), mean of medians from 2 slides: individual animals
# Protocol: (§1) Animals were anesthetized by 3.5% isoflurane (approximately 3 min, evaporator Dräger Vapor 19.3) and then killed by cervical dislocation. The liver was removed and its left lateral lobe used for the Comet assay. The remainder of the liver was washed in saline and then in two aliquots shock frozen in liquid nitrogen and stored at − 80 °C for later examinations. Subsequently the lung was removed from the dead animal. Its left lobe was used for the Comet assay and the remainder treated as described above for the liver. Thereafter the femora were removed for the preparation of the bone marrow.
# (§2) The Comet assay was performed under alkaline conditions according to the principles described by Singh et al. ([1988]) and Tice et al. ([2000]).
# (§3) Liver and lung cells were obtained essentially as described by Hartmann et al. ([2004]) and by the Japanese Center for the Validation of Alternative Methods (JaCVAM [2009]). Single cells were obtained within 1 h after killing of the animals in order to minimize DNA damage during the preparation.
# (§4) The organ parts (see above) were washed in mincing buffer (50 mM EDTA in HBSS [without Ca^2+ and Mg^2+] pH 7.5: DMSO 9:1 (v/v), the latter added shortly before use, stored at 4 °C), cut into 1 to 2-mm pieces in ice-cold mincing buffer and transferred to a cell sieve with 70-µm pores. The viability of the cell suspension was evaluated by the Trypan Blue Assay (Strober [2001]).
# (§5) 100 µL of the obtained cell suspension was mixed at 37 °C with 900 µL Low Melting Agarose (LMA) (0.7% agarose in phosphate-buffered saline [PBS] [Biochrom, Berlin, Germany] without Ca^2+ and Mg^2+). 100 µL of this mixture was transferred to a slide, which had been coated with Normal Melting Agarose (NMA) (0.6% agarose in PBS without Ca^2+ and Mg^2+). The slides were protected with a cover slip and the agarose was hardened at approximately 4 °C. The cover slips were then removed and the slides put over night at 4 °C into lysis buffer (2.5 M NaCl, 125 mM NaOH, 127 mM EDTA, 10 mM Tris/NaOH, pH 10; 1% Triton X-100 and 10% DMSO (v/v), the latter two added before use) in order to lyse the cell membrane, nuclear membrane and remove the histone.
# (§6) The then following procedures were performed in a shaded room to minimize UV-mediated DNA damage during the procedures.
# (§7) Remaining lysis buffer or FPG buffer was removed by immersing/washing the slides in PBS (without Ca^2+ and Mg^2+).
# The slides were then placed into the electrophoresis chamber, which was cooled and protected from light. Slides were covered with electrophoresis buffer (0.3 M NaOH, 1 mM EDTA, pH > 13) carefully avoiding air bubbles. The DNA was allowed to unwind (20 min). Thereafter the electrophoresis was started (25 V, 300 mA, […], 30 min). The slides were then washed (2 times 5 min) in neutralization buffer (0.4 M Tris/HCl, pH 7.5), dehydrated and fixed in 100% ethanol (1 min), dried at room temperature overnight and stored at room temperature protected from dust.
# Quantitative evaluation of the Comet assays was performed by fluorescence microscopy after DNA staining with ethidium bromide.
# [2] = test system: rat liver cells; assay: Comet assay in presence of FPG, liver; settings: liver, with FPG, 5 days; for TI (%), mean of medians from 2 slides: individual animals
# Protocol: as §1, §2, §3, §4, §5, §6
# Those slides which were destined to be treated with the DNA base excision repair enzyme FPG (Sigma Aldrich, Steinheim, Germany) were washed (3 times for 5 min) with FPG buffer (0.04 M HEPES, 0.5 mM EDTA, 0.1 M KCl, pH 8; add shortly before use bovine serum albumin [BSA] to a final concentration of 0.02%). Subsequently 50 µL FPG-enzyme-buffer (prepared shortly prior to use by 30-fold dilution of the following suspension in FPG buffer: 7 µL FPG-enzyme (14 U) and 70 µL glycerol in 623 µL FPG-Puffer, stored at − 80 °C) was pipetted on the slide which was covered with a cover slide and incubated for 30 min at 37 °C while being placed on a humid filter paper. After hardening of the agarose cover slips were removed.
# as §7
# [3] = Trypan Blue viability of the single cell suspension, lung; assay type: in vivo, rat; settings: rat, inhaled
compound,measurement,setting,value
"C=CN1CCCC1=O [NVP, N-vinylpyrrolidone]",Hedgehogs,"[1]; NVP-treated liver cells, with or without FPG",1–5%
same,Hedgehogs/100 cells (mean ± SD),"[1]; female, 5 ppm inhalation",3 ± 3 /100 cells
same,TI (%) (mean ± SD),"[1]; female, 5 ppm inhalation",1.0 ± 0.40%
same,"TI (%), mean of medians from 2 slides","[1]; female, 5 ppm inhalation",0.9% and 1.1% and 1.7% and 0.8% and 0.6%
same,Hedgehogs/100 cells (mean ± SD),"[1]; female, 10 ppm inhalation",4 ± 4 /100 cells
same,TI (%) (mean ± SD),"[1]; female, 10 ppm inhalation",0.9 ± 0.48%
same,"TI (%), mean of medians from 2 slides","[1]; female, 10 ppm inhalation",1.3% and 0.6% and 0.5% and 1.4% and 0.3%
same,Hedgehogs/100 cells (mean ± SD),"[1]; female, 20 ppm inhalation",3 ± 2 /100 cells
same,TI (%) (mean ± SD),"[1]; female, 20 ppm inhalation",0.7 ± 0.34%
same,Hedgehogs/100 cells (mean ± SD),"[1]; male, 5 ppm inhalation",3 ± 2 /100 cells
same,TI (%) (mean ± SD),"[1]; male, 5 ppm inhalation",0.9 ± 0.22%
same,"TI (%), mean of medians from 2 slides","[1]; male, 5 ppm inhalation",1.2% and 0.9% and 0.6% and 0.7% and 1.1%
same,Hedgehogs/100 cells (mean ± SD),"[1]; male, 10 ppm inhalation",3 ± 1 /100 cells
same,TI (%) (mean ± SD),"[1]; male, 10 ppm inhalation",1.0 ± 0.68%
same,"TI (%), mean of medians from 2 slides","[1]; male, 10 ppm inhalation",0.7% and 2.4% and 1.0% and 0.6%
same,Hedgehogs/100 cells (mean ± SD),"[1]; male, 20 ppm inhalation",3 ± 1 /100 cells
same,TI (%) (mean ± SD),"[1]; male, 20 ppm inhalation",0.7 ± 0.34%
same,"TI (%), mean of medians from 2 slides","[1]; male, 20 ppm inhalation",1.2% and 0.8% and 0.5% and 1.0% and 0.3%
same,Hedgehogs/100 cells (mean ± SD),"[2]; female, 5 ppm inhalation",4 ± 2 /100 cells
same,"TI (%), mean of medians from 2 slides","[2]; female, 5 ppm inhalation",6.5% and 8.4% and 9.0% and 9.3% and 5.6% and 7.1%
same,Hedgehogs/100 cells (mean ± SD),"[2]; female, 10 ppm inhalation",3 ± 2 /100 cells
same,TI (%) (mean ± SD),"[2]; female, 10 ppm inhalation",7.9 ± 2.74%
same,"TI (%), mean of medians from 2 slides","[2]; female, 10 ppm inhalation",5.5% and 10.7% and 5.6% and 5.3% and 9.4% and 11.0%
same,Hedgehogs/100 cells (mean ± SD),"[2]; female, 20 ppm inhalation",4 ± 2 /100 cells
same,TI (%) (mean ± SD),"[2]; female, 20 ppm inhalation",7.0 ± 1.97%
same,"TI (%), mean of medians from 2 slides","[2]; female, 20 ppm inhalation",9.2% and 5.2% and 8.3% and 6.3% and 8.6% and 4.4%
same,Hedgehogs/100 cells (mean ± SD),"[2]; male, 5 ppm inhalation",1 ± 1 /100 cells
same,TI (%) (mean ± SD),"[2]; male, 5 ppm inhalation",5.3 ± 1.09%
same,"TI (%), mean of medians from 2 slides","[2]; male, 5 ppm inhalation",4.3% and 5.8% and 5.2% and 4.0% and 7.0% and 5.7%
same,Hedgehogs/100 cells (mean ± SD),"[2]; male, 10 ppm inhalation",2 ± 1 /100 cells
same,TI (%) (mean ± SD),"[2]; male, 10 ppm inhalation",6.1 ± 1.67%
same,"TI (%), mean of medians from 2 slides","[2]; male, 10 ppm inhalation",8.3% and 7.5% and 3.7% and 4.9% and 6.5% and 5.8%
same,Hedgehogs/100 cells (mean ± SD),"[2]; male, 20 ppm inhalation",2 ± 1 /100 cells
same,TI (%) (mean ± SD),"[2]; male, 20 ppm inhalation",5.0 ± 1.09%
same,"TI (%), mean of medians from 2 slides","[2]; male, 20 ppm inhalation",6.8% and 4.4% and 5.0% and 4.7% and 3.6% and 5.6%
same,viability at 5 days,"[3]; both sexes, Wistar Crl:WI (Han), lung single cell suspension, lung cells, NVP-exposed, read-out: Viability, range of the individual animals",93 to 100%
same,viability at 5 days,"[3]; female, Wistar, lung, 5 ppm, lung, female, Comet with FPG (Table 11), 5 ppm inhalation, 5 days, individual animals, read-out: Individual viability (%)",99%
same,viability at 5 days,"[3]; female, Wistar, lung, 5 ppm, lung, female, Comet with FPG (Table 11), 5 ppm inhalation, 5 days, read-out: Viability (%) (mean ± SD)",99 ± 1%
same,viability at 5 days,"[3]; female, Wistar, lung, 5 ppm, lung, female, no FPG, 5 ppm inhalation, 5 days, individual animals, read-out: Individual viability (%)",99%
same,viability at 5 days,"[3]; female, Wistar, lung, 5 ppm, lung, female, no FPG, 5 ppm inhalation, 5 days, read-out: Viability (%) (mean ± SD)",99 ± 1%
same,viability at 5 days,"[3]; female, Wistar, lung, 10 ppm, lung, female, Comet with FPG (Table 11), 10 ppm inhalation, 5 days, individual animals, read-out: Individual viability (%)",98%
same,viability at 5 days,"[3]; female, Wistar, lung, 10 ppm, lung, female, Comet with FPG (Table 11), 10 ppm inhalation, 5 days, read-out: Viability (%) (mean ± SD)",98 ± 1%
same,viability at 5 days,"[3]; female, Wistar, lung, 10 ppm, lung, female, no FPG, 10 ppm inhalation, 5 days, individual animals, read-out: Individual viability (%)",98%
same,viability at 5 days,"[3]; female, Wistar, lung, 10 ppm, lung, female, no FPG, 10 ppm inhalation, 5 days, read-out: Viability (%) (mean ± SD)",98 ± 1%
same,viability at 5 days,"[3]; female, Wistar, lung, 20 ppm, lung, female, Comet with FPG (Table 11), 20 ppm inhalation, 5 days, individual animals, read-out: Individual viability (%)",98%
same,viability at 5 days,"[3]; female, Wistar, lung, 20 ppm, lung, female, Comet with FPG (Table 11), 20 ppm inhalation, 5 days, read-out: Viability (%) (mean ± SD)",98 ± 1%
same,viability at 5 days,"[3]; female, Wistar, lung, 20 ppm, lung, female, no FPG, 20 ppm inhalation, 5 days, individual animals, read-out: Individual viability (%)",98%
same,viability at 5 days,"[3]; female, Wistar, lung, 20 ppm, lung, female, no FPG, 20 ppm inhalation, 5 days, read-out: Viability (%) (mean ± SD)",98 ± 1%
same,viability at 5 days,"[3]; male, Wistar, lung, 5 ppm, lung, male, Comet with FPG (Table 10), 5 ppm inhalation, 5 days, individual animals, read-out: Individual viability (%)",97%
same,viability at 5 days,"[3]; male, Wistar, lung, 5 ppm, lung, male, Comet with FPG (Table 10), 5 ppm inhalation, 5 days, read-out: Viability (%) (mean ± SD)",98 ± 1%
same,viability at 5 days,"[3]; male, Wistar, lung, 5 ppm, lung, male, no FPG, 5 ppm inhalation, 5 days, individual animals, read-out: Individual viability (%)",97%
same,viability at 5 days,"[3]; male, Wistar, lung, 5 ppm, lung, male, no FPG, 5 ppm inhalation, 5 days, read-out: Viability (%) (mean ± SD)",98 ± 1%
same,viability at 5 days,"[3]; male, Wistar, lung, 10 ppm, lung, male, Comet with FPG (Table 10), 10 ppm inhalation, 5 days, individual animals, read-out: Individual viability (%)",99%
same,viability at 5 days,"[3]; male, Wistar, lung, 10 ppm, lung, male, Comet with FPG (Table 10), 10 ppm inhalation, 5 days, read-out: Viability (%) (mean ± SD)",98 ± 2%
same,viability at 5 days,"[3]; male, Wistar, lung, 10 ppm, lung, male, no FPG, 10 ppm inhalation, 5 days, individual animals, read-out: Individual viability (%)",99%
same,viability at 5 days,"[3]; male, Wistar, lung, 10 ppm, lung, male, no FPG, 10 ppm inhalation, 5 days, read-out: Viability (%) (mean ± SD)",98 ± 2%
same,viability at 5 days,"[3]; male, Wistar, lung, 20 ppm, lung, male, Comet with FPG (Table 10), 20 ppm inhalation, 5 days, individual animals, read-out: Individual viability (%)",100%
same,viability at 5 days,"[3]; male, Wistar, lung, 20 ppm, lung, male, Comet with FPG (Table 10), 20 ppm inhalation, 5 days, read-out: Viability (%) (mean ± SD)",99 ± 1%
same,viability at 5 days,"[3]; male, Wistar, lung, 20 ppm, lung, male, no FPG, 20 ppm inhalation, 5 days, individual animals, read-out: Individual viability (%)",100%
same,viability at 5 days,"[3]; male, Wistar, lung, 20 ppm, lung, male, no FPG, 20 ppm inhalation, 5 days, read-out: Viability (%) (mean ± SD)",99 ± 1%

# Reference: PMC8536644, “Enigmatic mechanism of the N-vinylpyrrolidone hepatocarcinogenicity in the rat” (Archives of Toxicology, 2021)
